Test results published in patent publication US8367873B2, “Phenyl-substituted bicyclooctane-1,3-dione derivatives” (Bayer Cropscience AG, priority 2008, dated 2013).

Assays:
Type in all cases: in vivo
[1] = tested on: monocotylidonous and dicotylidonous weed and crop plants; assay: Herbicidal pre-emergence action (other test plants); details: pre-emergence method, 80 g/ha, greenhouse, visual assessment vs untreated controls
Method in brief: (§1)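 Visual percent effect relative to untreated controls (0% = like control, 100% = dead) assessed three weeks after treatment in the greenhouse. Compounds, as wettable powders in water (600 l/ha, 0.2% wetting agent), were sprayed at different amounts onto covering soil over seeds sown in sandy loam.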

Echinocloa crus-galli [2] = assay: Herbicidal post-emergence action; details: post-emergence method; for herbicidal effect against ECHCG (Echinochloa crus-galli): 80 g/ha
Method in brief: (§2)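 Greenhouse-grown weeds were treated post-emergence at the one-leaf stage, two to three weeks after sowing in sandy loam. Compounds formulated as WP were sprayed at various rates in 600 l/ha water with 0.2% wetting agent. Damage was scored visually after about three weeks versus untreated controls (0% = like control, 100% = dead).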

Alopecurus myosuroides [3] = assay: Herbicidal post-emergence action; details: post-emergence method; for herbicidal effect against ALOMY (Alopecurus myosuroides): 80 g/ha
Method in brief: as §2

Lolium multiflorum [4] = assay: Herbicidal post-emergence action; details: post-emergence method; for herbicidal effect against LOLMU (Lolium multiflorum): 80 g/ha
Method in brief: as §2

Setaria viridis [5] = assay: Herbicidal post-emergence action; details: post-emergence method; for herbicidal effect against SETVI (Setaria viridis): 80 g/ha
Method in brief: as §2

Echinocloa crus-galli [6] = assay: Herbicidal pre-emergence action; details: pre-emergence method, 80 g/ha, greenhouse, visual assessment vs untreated controls
Method in brief: as §1

Alopecurus myosuroides [7] = assay: Herbicidal pre-emergence action; details: pre-emergence method, 80 g/ha, greenhouse, visual assessment vs untreated controls
Method in brief: as §1

Lolium multiflorum [8] = assay: Herbicidal pre-emergence action; details: pre-emergence method, 80 g/ha, greenhouse, visual assessment vs untreated controls
Method in brief: as §1

Setaria viridis [9] = assay: Herbicidal pre-emergence action; details: pre-emergence method, 80 g/ha, greenhouse, visual assessment vs untreated controls
Method in brief: as §1

[10] = tested on: monocotylidonous and dicotylidonous weed and crop plants; assay: Herbicidal post-emergence action (other test plants); details: post-emergence method; for herbicidal effect against AVEFA (Avena fatua): 80 g/ha
Method in brief: as §2

cereals = assay: Container trials with cereals in the greenhouse, use of safeners (Mefenpyr 1 day prior to herbicide application)
Procedure: Seeds of monocotylidonous and dicotylidonous weed and crop plants are placed in sandy loam in wood fibre pots, covered with soil and cultivated in a greenhouse under good growth conditions. Two to three weeks after sowing, the test plants are treated at the one-leaf stage. The test compounds, formulated as wettable powders (WP), are then with a water application rate of 600 l/ha (converted), with 0.2% of wetting agent added, sprayed onto the green parts of the plants in different amounts. After the test plants have been kept in the greenhouse under optimum growth conditions for about three weeks, the effect of the preparations is assessed visually in comparison to untreated controls (herbicidal effect in percent: 100% effect=the plants have died, 0% effect=like control plants).
If it is to be additionally tested as to whether safeners can improve the plant compatibility of test substances in the case of crop plants, the following options are used for applying the safeners: • Seeds of the crop plants are, before sowing, dressed with safener substance (the amount of safener stated in percent, based on the weight of the seed) • Before the application of the test substances, the crop plants are sprayed with the safener at a certain application rate per hectare (usually one day before the application of the test substances) • The safener is applied together with the test substance as a tank mix (the amount of safener stated in g/ha or as a ratio, based on the herbicide).
Container Trials with Cereals in the Greenhouse

[11] = 28 days after application, 50 g of a.i./ha
[12] = 28 days after application, 100 g of a.i./ha
[13] = 10 days after application, 12.5 g of a.i./ha
[14] = 10 days after application, 25 g of a.i./ha
[15] = 10 days after application, 50 g of a.i./ha
[16] = 28 days after application, 12.5 g of a.i./ha
[17] = 28 days after application, 25 g of a.i./ha

SMILES	herbicidal effect AVEFA [1]	herbicidal effect against ECHCG (Echinochloa crus-galli) (Echinocloa crus-galli [2])	herbicidal effect against ALOMY (Alopecurus myosuroides) (Alopecurus myosuroides [3])	herbicidal effect against LOLMU (Lolium multiflorum) (Lolium multiflorum [4])	herbicidal effect against SETVI (Setaria viridis) (Setaria viridis [5])	herbicidal effect ECHCG (Echinocloa crus-galli [6])	herbicidal effect ALOMY (Alopecurus myosuroides [7])	herbicidal effect LOLMU (Lolium multiflorum [8])	herbicidal effect SETVI (Setaria viridis [9])	herbicidal effect against AVEFA (Avena fatua) [10]	Summer barley observed (%) (cereals; [11])	Summer barley observed (%) (cereals; [12])	Summer wheat observed (%) (cereals; [13])	Summer wheat observed (%) (cereals; [14])	Summer wheat observed (%) (cereals; [15])	Summer wheat observed (%) (cereals; [16])	Summer wheat observed (%) (cereals; [17])	Summer wheat observed (%) (cereals; [11])	Summer wheat observed (%) (cereals; [12])	other results
CCc1cc(C)cc(CC)c1C1=C(O)[C@H]2CC3(C[C@H]2C1=O)OCCCO3 (relative stereo) [I-a-11]	50%	100%	90%	100%	100%	100%	90%	100%	70%	90%	8%	10%	30%	50%	70%	10%	50%	60%	70%	–
CCOC(=O)OC1=C(c2c(CC)cc(C)cc2CC)C(=O)[C@@H]2CC3(C[C@H]12)OCCCCO3 (relative stereo) [I-c-9]	70%	100%	90%	100%	90%	100%	100%	100%	70%	80%	–	–	–	–	–	–	30%	40%	50%	–
CCOC(=O)OC1=C(c2c(CC)cc(C)cc2CC)C(=O)[C@@H]2CC3(C[C@H]12)OCCO3 (relative stereo) [I-c-7]	70%	100%	90%	100%	80%	100%	100%	90%	70%	70%	–	–	40%	50%	60%	10%	30%	30%	30%	–
CCc1cc(C)cc(CC)c1C1=C(OC(=O)OC(C)C)[C@H]2C[C@]3(COC(C)(C)O3)C[C@H]2C1=O (relative stereo) [I-c-3]	80%	90%	90%	100%	80%	40%	100%	100%	70%	80%	30%	95%	–	–	–	10%	20%	60%	99%	Summer barley observed (%) (cereals; [17]): 15%
CCc1cc(C)cc(CC)c1C1=C(O)[C@H]2C[C@]3(COC(C)(C)O3)C[C@H]2C1=O [I-a-2]	50%	–	–	–	–	90%	90%	100%	50%	–	–	–	–	–	–	40%	50%	60%	–	pest or weed control at 80 g/ha (Echinocloa crus-galli [2]; Echinochloa crus-galli, 504 h, read-out: herbicidal effect against ECHCG (Echinochloa crus-galli)): 100%; pest or weed control at 80 g/ha (Alopecurus myosuroides [3]; Alopecurus myosuroides, 504 h, read-out: herbicidal effect against ALOMY (Alopecurus myosuroides)): 100%; pest or weed control at 80 g/ha (Lolium multiflorum [4]; Lolium multiflorum, 504 h, read-out: herbicidal effect against LOLMU (Lolium multiflorum)): 100%; pest or weed control at 80 g/ha (Setaria viridis [5]; Setaria viridis, 504 h, read-out: herbicidal effect against SETVI (Setaria viridis)): 90%; pest or weed control at 80 g/ha ([10]; 504 h, Avena fatua, read-out: herbicidal effect against AVEFA (Avena fatua)): 70%
